Laboratory results: patent US20060020042A1, “Memantine for the treatment of mild and mild to moderate Alzheimer's disease” (Forest Laboratories, Inc., priority 2004, published 2006)

Assays:
[1] = cited from earlier work
[2] = system: outpatients with mild-to-moderate Alzheimer's disease; test: CIBIC-plus in randomized, double-blind, placebo-controlled study; assay type: in vivo, human; details: for CIBIC+ Non-Responder, number of patients / CIBIC+ Responder (ratings 1-4), number of patients / CIBIC+ Difference (memantine minus placebo, mean): Week 24, ITT; for CIBIC+ Difference (memantine minus placebo, mean): 20 mg/day
Excerpt: The present invention is based on results from a randomized, double-blind, placebo-controlled, multi-center, parallel-group study comparing memantine to placebo in outpatients diagnosed with probable AD according to […] criteria. Severity of mild to moderate was established using the Mini-Mental State Examination (MMSE) score (≧10 and ≦22; 0 is the lowest score and 30 is the highest score). In the study of the present invention, there were approximately 400 patients enrolled across 42 centers. Evaluation of primary efficacy was achieved by Alzheimer's Disease Assessment Scale-cognitive subscale (ADAS-cog) and the Clinician's Interview-Based Impression of Change including caregiver information (CIBIC-plus). Secondary efficacy was determined using Alzheimer's disease Cooperative Study-Activities of Daily Living (ADCS-ADL) and Neuropsychiatric Inventory (NPI) criteria. The CIBIC-Plus is a global rating that was derived through an independent, comprehensive interview with the patient and caregiver by an experienced rater/clinician who was barred from knowledge of all other psychometric test scores (after Baseline visit) conducted as part of this protocol and who is not otherwise familiar with the patient. Scores 1-3 indicate improvement; Score 4 indicates no change (as compared to baseline); Scores 5-7 indicate worsening. The CIBIC rater assessed disease severity at Baseline. Using the results from Baseline for reference, the rater then interviewed the patient and caregiver at the end of Weeks 4, 8, 12, 18 and 24 (or upon early termination), to obtain an “Impression of Change” rating. The format for this scale was derived from the Alzheimer's Disease Cooperative Study-Clinician's Global Impression of Change scale (ADCS-CGIC) (Schneider, L. et al, Alzheimer Dis Assoc Disord. 1997; 11 Suppl 2:S22-32). The CIBIC-plus was administered at each clinic visit starting with the Baseline visit. A “responder” is defined as a patient for whom the change from baseline (Visit 2) to Week 24 in ADAS-cog is less than or equal to -4. […] Results were evaluated over seven clinical visits; at initial screening, baseline, and the end of weeks 4, 8, 12, 18 and 24. The population of patients who received at least one dose of double-blind memantine, and completed at least one post-baseline efficacy evaluation of either the ADAS-cog or the CIBIC-plus is designated the “intent-to-treat” (ITT) population. The population of randomized patients who received at least one dose of double-blind study medication is designated the “safety population”. The randomized population designates all patients randomized into the study. This study was conducted as a fixed-dose study. All patients assigned to the memantine group received an initial dose of 5 mg per day; the dose was titrated in 5 mg weekly increments to a final dose of 20 mg/day (administered as two 5 mg tablets twice a day). Study drug was provided as blister packs containing masked study medication such that placebo and memantine tablets were visually identical, and all patients received four tablets of study medication daily (in combinations of memantine 5 mg tablets and matching placebo tablets). Transient dose adjustments were permitted between weeks 3 and 8 for patients experiencing dose-limiting adverse events. However, all patients were required to receive the target dose of 20 mg/day by the end of week 8. Patients not able to tolerate the target dose by week 8 were discontinued from the study. The CIBIC-plus rating was analyzed using the CMH test, controlling for study center ([…]). Descriptive statistics were calculated by visit.

[3] = system: outpatients with mild-to-moderate Alzheimer's disease; test: NPI in randomized, double-blind, placebo-controlled study; assay type: in vivo, human; details: for NPI total Difference (memantine minus placebo, LS mean): Week 24, ITT, 20 mg/day
Protocol: In the study of the present invention, there were approximately 400 patients enrolled across 42 centers. Evaluation of primary efficacy was achieved by Alzheimer's Disease Assessment Scale-cognitive subscale (ADAS-cog) and the Clinician's Interview-Based Impression of Change including caregiver information (CIBIC-plus). Secondary efficacy was determined using Alzheimer's disease Cooperative Study-Activities of Daily Living (ADCS-ADL) and Neuropsychiatric Inventory (NPI) criteria. The NPI is a validated scale that assesses behavioral disturbances in patients with dementia (Cummings et al., Neurology. 1994; 44(12):2308-14). It provides both a total score (sum of 12 domain scores) as well as scores for each subscales (e.g., delusions, hallucinations, agitation/aggression, depression/dysphoria, anxiety, disinhibition, elation/euphoria, apathy/indifference, irritability/lability, aberrant motor activity). For each subscale, both the frequency and the severity of each behavior is measured. The NPI total score ranges from 0 (higher functioning status) to 144 (lower functioning status). The NPI is based upon responses from the caregiver. The NPI was administered at Baseline and the end of Weeks 12 and 24 (or upon early termination). The study consisted of 1-2 weeks of single-blind placebo treatment followed by 24 weeks of double-blind treatment. Results were evaluated over seven clinical visits; at initial screening, baseline, and the end of weeks 4, 8, 12, 18 and 24. This study was conducted as a fixed-dose study. All patients assigned to the memantine group received an initial dose of 5 mg per day; the dose was titrated in 5 mg weekly increments to a final dose of 20 mg/day (administered as two 5 mg tablets twice a day). Study drug was provided as blister packs containing masked study medication such that placebo and memantine tablets were visually identical, and all patients received four tablets of study medication daily (in combinations of memantine 5 mg tablets and matching placebo tablets). […] Descriptive statistics were calculated by visit. […]

[4] = LOCF, ITT, of 196 patients randomized to memantine

In the case of `CC12CC3CC(C)(C1)CC(N)(C3)C2` [Memantine, 1-amino-3,5-dimethyladamantane], the “solubility in aqueous media” value [1] is listed as “highly soluble”, the “CIBIC-plus marked improvement, number of patients” value [2, 4] is listed as 9 patients and the “CIBIC-plus marked worsening, number of patients” value [2, 4] is listed as 1 patients. The “CIBIC-plus moderate improvement, number of patients” value [2, 4] was 27 patients, the “CIBIC-plus moderate worsening, number of patients” value [2, 4] was 18 patients and the “CIBIC-plus marked worsening, number of patients” value ([2]; OC analysis) was 1 patients. For the same compound, the “CIBIC-plus minimal improvement, number of patients” value ([2]; OC analysis) was 24 patients, the “CIBIC-plus moderate improvement, number of patients” value ([2]; OC analysis) was 8 patients and the “CIBIC-plus moderate worsening, number of patients” value ([2]; OC analysis) was 17 patients. For the same compound, the “CIBIC+ Non-Responder, number of patients” value ([2]; LOCF analysis) was 64 patients, the “CIBIC+ Responder (ratings 1-4), number of patients” value (“CIBIC+ Responder” below) ([2]; LOCF analysis) was 132 patients and the “CIBIC+ Difference (memantine minus placebo, mean)” value ([2]; LOCF analysis, p=0.004) was −0.32. The “CIBIC+ Non-Responder, number of patients” value ([2]; LOCF analysis, listed as Mem) was 97/64 patients, the “CIBIC+ Responder” value ([2]; LOCF analysis, listed as Mem) was 100/132 patients and the “CIBIC+ Non-Responder, number of patients” value ([2]; OC analysis) was 56 patients. The “CIBIC+ Responder” value ([2]; OC analysis) was 108 patients, the “CIBIC+ Difference (memantine minus placebo, mean)” value ([2]; OC analysis, p=0.030) was −0.26 and the “CIBIC+ Non-Responder, number of patients” value ([2]; OC analysis, listed as Mem) was 81/56 patients. The “CIBIC+ Responder” value ([2]; OC analysis, listed as Mem) was 85/108 patients, the “CIBIC-plus, memantine-treated group compared with placebo” value ([2]; by week 12, LOCF and OC) was “statistically significant improvement” and the “individual NPI criteria significantly better than in the placebo-treated group” value ([3]; LOCF, week 24) was “three”. For the same compound, the “NPI total Difference (memantine minus placebo, LS mean)” value ([3]; LOCF analysis, p=0.011) was −3.5 and the “NPI total Difference (memantine minus placebo, LS mean)” value ([3]; OC analysis, p=0.143) was −2.1.
